Measured values published in ChEMBL document CHEMBL3774345, “Synthesis of new diarylamides with pyrimidinyl pyridine scaffold and evaluation of their anti-proliferative effect on cancer cell lines” (Bioorg Med Chem Lett, 2016).

Legend:
[1] = Cytotoxicity against human UACC257 cells assessed as cell growth at 10^-6 M after 24 hrs by SRB assay; format: functional; details: UACC-257, 24 h, read-out: Activity
ACHN = assay: Cytotoxicity against human ACHN cells assessed as cell growth at 10^-6 M after 24 hrs by SRB assay; format: functional; details: read-out: Activity
[2] = Cytotoxicity against human OVCAR5 cells assessed as cell growth at 10^-8 M after 24 hrs by SRB assay; format: functional; details: OVCAR-5, 24 h, read-out: Activity
MDA-MB-435 = assay: Cytotoxicity against human MDA-MB-435 cells assessed as cell growth at 10^-8 M after 24 hrs by SRB assay; format: functional; details: MDA-MB-435, 24 h, read-out: Activity
[3] = Cytotoxicity against human SKOV3 cells assessed as cell growth at 10^-5 M after 24 hrs by SRB assay; format: functional; details: SK-OV-3, 24 h, read-out: Activity
[4] = Cytotoxicity against human DU145 cells after 24 hrs by SRB assay; format: functional; details: DU-145, 24 h
NCI-H460 = assay: Cytotoxicity against human NCI-H460 cells assessed as cell growth at 10^-4 M after 24 hrs by SRB assay; format: functional; details: NCI-H460, 24 h, read-out: Activity
[5] = Cytotoxicity against human SW620 cells assessed as cell growth at 10^-7 M after 24 hrs by SRB assay; format: functional; details: SW-620, 24 h, read-out: Activity
[6] = Cytotoxicity against human RPMI8226 cells assessed as cell growth at 10^-7 M after 24 hrs by SRB assay; format: functional; details: RPMI-8226, 24 h, read-out: Activity
NCI-H322M = assay: Cytotoxicity against human NCI-H322M cells assessed as cell growth at 10^-5 M after 24 hrs by SRB assay; format: functional; details: read-out: Activity
Malme-3M [7] = assay: Cytotoxicity against human MALME-3M cells assessed as cell growth at 10^-6 M after 24 hrs by SRB assay; format: functional; details: read-out: Activity
[8] = Cytotoxicity against human HOP62 cells assessed as cell growth at 10^-6 M after 24 hrs by SRB assay; format: functional; details: HOP-62, 24 h, read-out: Activity
[9] = Cytotoxicity against human PC3 cells assessed as cell growth at 10^-5 M after 24 hrs by SRB assay; format: functional; details: PC-3, 24 h, read-out: Activity
[10] = Cytotoxicity against human HOP92 cells assessed as cell growth at 10^-7 M after 24 hrs by SRB assay; format: functional; details: HOP-92, 24 h, read-out: Activity
SN12C [11] = assay: Cytotoxicity against human SN12C cells assessed as cell growth at 10^-8 M after 24 hrs by SRB assay; format: functional; details: read-out: Activity
[12] = Cytotoxicity against human MOLT4 cells assessed as cell growth at 10^-6 M after 24 hrs by SRB assay; format: functional; details: MOLT-4, 24 h, read-out: Activity
A498 = assay: Cytotoxicity against human A498 cells after 24 hrs by SRB assay; format: functional; details: A498, 24 h
[13] = Cytotoxicity against human SF295 cells assessed as cell growth at 10^-6 M after 24 hrs by SRB assay; format: functional; details: SF-295, 24 h, read-out: Activity
[14] = Cytotoxicity against human LOXIMVI cells assessed as cell growth at 10^-6 M after 24 hrs by SRB assay; format: functional; details: LOX IMVI, read-out: Activity
HT-29 [15] = assay: Cytotoxicity against human HT-29 cells assessed as cell growth at 10^-7 M after 24 hrs by SRB assay; format: functional; details: HT-29, 24 h, read-out: Activity
MCF7 = assay: Cytotoxicity against human MCF7 cells assessed as cell growth at 10^-8 M after 24 hrs by SRB assay; format: functional; details: MCF7, 24 h, read-out: Activity
[16] = Cytotoxicity against human TK10 cells assessed as cell growth at 10^-6 M after 24 hrs by SRB assay; format: functional; details: TK-10, 24 h, read-out: Activity
SN12C [17] = assay: Cytotoxicity against human SN12C cells after 24 hrs by SRB assay; format: functional
[18] = Cytotoxicity against human OVCAR3 cells assessed as cell growth at 10^-5 M after 24 hrs by SRB assay; format: functional; details: OVCAR-3, 24 h, read-out: Activity
[19] = Cytotoxicity against human HCC2998 cells after 24 hrs by SRB assay; format: functional, cell-based; details: HCC 2998, 24 h
SN12C [20] = assay: Cytotoxicity against human SN12C cells assessed as cell growth at 10^-5 M after 24 hrs by SRB assay; format: functional; details: read-out: Activity
SK-MEL-28 = assay: Cytotoxicity against human SK-MEL-28 cells assessed as cell growth at 10^-8 M after 24 hrs by SRB assay; format: functional; details: SK-MEL-28, 24 h, read-out: Activity
786-0 = assay: Cytotoxicity against human 786-0 cells assessed as cell growth at 10^-5 M after 24 hrs by SRB assay; format: functional; details: 786-0, 24 h, read-out: Activity
CCRF-CEM [21] = assay: Cytotoxicity against human CCRF-CEM cells assessed as cell growth at 10^-8 M after 24 hrs by SRB assay; format: functional; details: read-out: Activity
CCRF-CEM [22] = assay: Cytotoxicity against human CCRF-CEM cells assessed as cell growth at 10^-6 M after 24 hrs by SRB assay; format: functional; details: read-out: Activity
SR = assay: Cytotoxicity against human SR cells after 24 hrs by SRB assay; format: functional
[23] = Cytotoxicity against human HOP92 cells after 24 hrs by SRB assay; format: functional, cell-based; details: HOP-92, 24 h
[24] = Cytotoxicity against human UO31 cells assessed as cell growth at 10^-8 M after 24 hrs by SRB assay; format: functional; details: UO-31, 24 h, read-out: Activity
Malme-3M [25] = assay: Cytotoxicity against human MALME-3M cells assessed as cell growth at 10^-8 M after 24 hrs by SRB assay; format: functional; details: read-out: Activity
[26] = Cytotoxicity against human NCI-ADR-RES cells assessed as cell growth at 10^-8 M after 24 hrs by SRB assay; format: functional; details: read-out: Activity
HT-29 [27] = assay: Cytotoxicity against human HT-29 cells assessed as cell growth at 10^-6 M after 24 hrs by SRB assay; format: functional; details: HT-29, 24 h, read-out: Activity
[28] = read-out: LC50 (the source's name)
[29] = read-out: pLC50 (the source's name) (converted)

O=C(Nc1cc(-c2cccnc2)nc(NCCCN2CCOCC2)n1)c1cc(Br)cc(C(F)(F)F)c1
growth at 1 µM [1]: 113%
growth at 1 µM (ACHN): 92%
growth at 0.01 µM [2]: 92%
growth at 0.01 µM (MDA-MB-435): 96%
growth at 10 µM [3]: 42%
GI50 ([4]; read-out: GI50): 6.7 µM
CC50 [4, 28]: 43.7 µM
TGI ([4]; read-out: TGI): 19.1 µM
GI50 ([4]; read-out: pGI50 (converted)): 6.76 µM
CC50 [4, 29]: 43.7 µM
TGI ([4]; read-out: pTGI (converted)): 19.1 µM
growth at 100 µM (NCI-H460): -75%
growth at 0.1 µM [5]: 96%
growth at 0.1 µM [6]: 104%
growth at 10 µM (NCI-H322M): 19%
growth at 1 µM (Malme-3M [7]): 90%
growth at 1 µM [8]: 88%
growth at 10 µM [9]: 23%
growth at 0.1 µM [10]: 80%
growth at 0.01 µM (SN12C [11]): 95%
growth at 1 µM [12]: 102%
GI50 (A498; read-out: GI50): 3.43 µM
CC50 (A498; [28]): 40.5 µM
TGI (A498; read-out: TGI): 13.4 µM
GI50 (A498; read-out: pGI50 (converted)): 3.39 µM
CC50 (A498; [29]): 40.7 µM
TGI (A498; read-out: pTGI (converted)): 13.5 µM
growth at 1 µM [13]: 97%
growth at 1 µM [14]: 88%
growth at 0.1 µM (HT-29 [15]): 102%
growth at 0.01 µM (MCF7): 95%
growth at 1 µM [16]: 88%
GI50 (SN12C [17]; read-out: GI50): 7.74 µM
CC50 (SN12C [17]; [28]): 53.5 µM
TGI (SN12C [17]; read-out: TGI): 21.8 µM
GI50 (SN12C [17]; read-out: pGI50 (converted)): 7.76 µM
CC50 (SN12C [17]; [29]): 53.7 µM
TGI (SN12C [17]; read-out: pTGI (converted)): 22.4 µM
growth at 10 µM [18]: 12%
GI50 [19]: 1780 nM
CC50 [19, 28]: 6.89 µM
TGI ([19]; read-out: TGI): 3.49 µM
CC50 [19, 29]: 6.92 µM
TGI ([19]; read-out: pTGI (converted)): 3.47 µM
growth at 10 µM (SN12C [20]): 44%
growth at 0.01 µM (SK-MEL-28): 92%
growth at 10 µM (786-0): -80%
growth at 0.01 µM (CCRF-CEM [21]): 100%
growth at 1 µM (CCRF-CEM [22]): 103%
GI50 (SR; read-out: GI50): 2600 nM
CC50 (SR; [28]): > 100 µM
TGI (SR; read-out: TGI): 41.7 µM
GI50 (SR; read-out: pGI50 (converted)): 2630 nM
CC50 (SR; [29]): > 100 µM
TGI (SR; read-out: pTGI (converted)): 41.7 µM
IC50 [23]: 1970 nM
GI50 ([23]; read-out: GI50): 1970 nM
CC50 [23, 28]: 29.9 µM
TGI ([23]; read-out: TGI): 7.62 µM
GI50 ([23]; read-out: pGI50 (converted)): 1950 nM
CC50 [23, 29]: 30.2 µM
TGI ([23]; read-out: pTGI (converted)): 7.59 µM
growth at 0.01 µM [24]: 95%
growth at 0.01 µM (Malme-3M [25]): 99%
growth at 0.01 µM [26]: 100%
growth at 1 µM (HT-29 [27]): 94%
